Measurements reported in EP0390762A1, “New bronchospasmolytic compounds and process for their preparation” (priority 1989, dated 1990).

Columns and labels:
[1] = test system: dyspnotic breathing in histamine; assay: Duration of bronchodilating activity in conscious guinea pigs challenged with aerosolized histamine after tracheal instillation or inhalation; assay type: in vivo; details: for initial potency compared with salmeterol / initial potency compared with terbutaline: conscious guinea pigs, histamine challenge; for delay (in minutes) in the appearance of dyspnotic breathing in histamine 0.5 h after the administration / delay (in minutes) in the appearance of dyspnotic breathing in histamine 6 h after the administration: given intratracheally
Protocol: Concious guinea pigs were used in the study. The compounds according to Examples 1 and 2, salmeterol and terbutaline, were given by inhalation or by tracheal instillation whereafter the animals were challenged in a histamine mist after different time intervals.
The guinea pigs were placed in plastic boxes and the test compounds delivered by continuous flow nebulization during 15 minutes.
The animals were lightly anaesthetized by inhalation of Efrane. The test compounds were instilled by use of a thin cannula to the tracheal bifurcation. Controlled animals were instilled with saline.
After the administrations, according to one of the mentioned routes, the animals were placed in transparent plastic cages and challenged with aerosolized histamine. The mist was generated in a nebulizer from a solution containing 0.5-1.0x10⁻³ mol/l of histamine in 3% glycerol. This concentration produced a defined dyspnotic breathing, appearing in control animals within 2-3 minutes. This phase was usally indicated by observation, sometimes also a "blinded trial" or recorded by use of a strain-gauge belt (see 0.A.T. Olsson in Acta Allergologica 26, 438, 1971). An increasing amount of spasmolytic drug gives then rise to a dose-dependent prolongation of the ability of the animals to resist this histamine spasm. As soon as a dyspnotic breathing was established the guinea pigs were removed from the histamine milieu since the same animals have to be exposed to histamine not only after 30 minutes but also at 3, 6 and 9 hours after drug administration.
In some of the experiments the animals were challenged with methacholine instead of histamine to exclude the eventuality of an antihistaminic effect of the drugs tested.
The amounts instilled produce about equieffective protection (6 to 7 minutes) against a histamine provocation 30 minutes after the administration of the test compound. The degree of protection 6 hours after the instillation of the test compound indicates the duration of the bronchospasmolytic activity.

[2] = test system: histamine-elicited bronchospasm; assay: Bronchospasmolytic effect (reduction of intratracheal pressure, ITP) in anaesthetized guinea pigs; assay type: in vivo; details: for dose-related inhibition of the histamine-elicited bronchospasm: after injection as well as after inhalation; for reduction of ITP: 3 minutes before histamine infusion
Protocol: (§1) Guinea pigs of either sex were used in the study. The anaesthesia was produced by intravenous pentobarbital, The trachea was cannulated and the animals articificially ventilated by a constant volume respiratory. The intratracheal pressure (ITP) was measured by a pressure transducer. An increase in ITP, above the basic pressure level, indicating a respiratory spasm, was elicited by histamine infused in a jugular vein during 20 sec. every 7 minutes and in amounts producing a peak-ITP in the range 4-6 kPa. To trace cardiovascular effects from used drugs the blood pressure was recorded from a carotide artery via a pressure transducer. The pulse wave, indicating the rate, was triggering a tachograph recording the heart frequency.
(§2) The test compounds were injected 3 minutes before a histamine infusion and the decrease in percent of the intratracheal pressure (ITP) was taken as a measure of the bronchospasmolytic activity. The influence on heart-rate was evaluated after cumultative injections; a new injection was given when the preceding one had produced a steady state in the rate.
(§3) The test compounds were nebulized and the mist produced was led to the animal through the respirator and tracheal cannula. Inhalation continued for 15 mintues for each concentration of the test compounds. The bronchodilating effect […] was calculated as percent reduction in ITP. The effect on heart-rate was determined after a cumultative increase in the concentrations of the nebulized solutions. Effect measurements were made at steady state, and three different concentrations were used.

heart-rate = assay: Heart-stimulating effect (heart-rate) in anaesthetized guinea pigs; assay type: in vivo
Protocol: as §1, §2, §3

[3] = inhalation therapy; cited from earlier work

Structure (SMILES): COc1ccc(CNc2cc([C@@H](O)CN[C@@H](C)Cc3ccc4c(c3)OCO4)ccc2O)cc1 (racemic) [(R,S+S,R)]
- initial potency compared with salmeterol [1]: approximately ten times less than for salmeterol
- initial potency compared with terbutaline [1]: about the same as for terbutaline
- delay (in minutes) in the appearance of dyspnotic breathing in histamine 0.5 h after the administration ([1]; 1x10⁻⁸ mol/kg): 7 min
- delay (in minutes) in the appearance of dyspnotic breathing in histamine 6 h after the administration ([1]; 1x10⁻⁸ mol/kg): 6 min
- dose-related inhibition of the histamine-elicited bronchospasm [2]: inhibition of the histamine-elicited bronchospasm
- reduction of ITP ([2]; injection of 5x10⁻⁹ mol/kg): about 50 per cent
- effect on heart rate compared with salmeterol (heart-rate; after inhalation): more reduced effect on heart rate
- relationship between the effect on the respiratory system and heart, compared with salmeterol (heart-rate; when the drugs are injected): the same

Structure (SMILES): COc1ccc(CNc2cc([C@@H](O)CN[C@H](C)Cc3ccc4c(c3)OCO4)ccc2O)cc1 [(R,R)]
- delay (in minutes) in the appearance of dyspnotic breathing in histamine 0.5 h after the administration ([1]; 5x10⁻⁸ mol/kg): 7 min
- delay (in minutes) in the appearance of dyspnotic breathing in histamine 6 h after the administration ([1]; 5x10⁻⁸ mol/kg): 3 min

Structure (SMILES): COc1ccc(CNc2cc(C(O)CNC(C)Cc3ccc4c(c3)OCO4)ccc2O)cc1 [(R,R+S,R)]
- delay (in minutes) in the appearance of dyspnotic breathing in histamine 0.5 h after the administration ([1]; 1x10⁻⁷ mol/kg): 7 min
- delay (in minutes) in the appearance of dyspnotic breathing in histamine 6 h after the administration ([1]; 1x10⁻⁷ mol/kg): 3 min

Structure (SMILES): COc1ccc(CNc2cc([C@@H](O)CN[C@@H](C)Cc3ccc4c(c3)OCO4)ccc2O)cc1 [(R,S), 1-(R)-(4-hydroxy-3-(p-methoxybenzylamino)phenyl)-2-[(1(S)-methyl-2-(3,4-methylenedioxyphenyl)ethyl)amino]ethanol]
- initial potency compared with salmeterol [1]: approximately ten times less than for salmeterol
- initial potency compared with terbutaline [1]: about the same as for terbutaline
- delay (in minutes) in the appearance of dyspnotic breathing in histamine 0.5 h after the administration ([1]; 5x10⁻⁹ mol/kg): 6 min
- delay (in minutes) in the appearance of dyspnotic breathing in histamine 6 h after the administration ([1]; 5x10⁻⁹ mol/kg): 5 min

Structure (SMILES): COc1ccc(CNc2cc(C(O)CNC(C)Cc3ccc4c(c3)OCO4)ccc2O)cc1 [(R,S+S,S)]
- delay (in minutes) in the appearance of dyspnotic breathing in histamine 0.5 h after the administration ([1]; 1x10⁻⁸ mol/kg): 6 min
- delay (in minutes) in the appearance of dyspnotic breathing in histamine 6 h after the administration ([1]; 1x10⁻⁸ mol/kg): 5 min

Structure (SMILES): CC(C)(C)NCC(O)c1cc(O)cc(O)c1 (centres unmarked) [Terbutaline, terbutaline]
- delay (in minutes) in the appearance of dyspnotic breathing in histamine 0.5 h after the administration ([1]; 1x10⁻⁷ mol/kg): 7 min
- delay (in minutes) in the appearance of dyspnotic breathing in histamine 6 h after the administration ([1]; 1x10⁻⁷ mol/kg): 2 min
- dose-related inhibition of the histamine-elicited bronchospasm [2]: inhibition of the histamine-elicited bronchospasm
- reduction of ITP ([2]; injection of 1x10⁻⁸ mol/kg): about 50 per cent
- effect on heart-rate relative to salmeterol and the compounds of the invention (heart-rate; guinea pig, in vivo): lies in between
- increase of the heart-rate (heart-rate; guinea pig, in vivo, iv): about 30 beats/min
- duration of activity [3]: 4 to 6 h

Structure (SMILES): Cc1ccc(C(=O)Oc2ccc(C(O)CNC(C)(C)C)cc2OC(=O)c2ccc(C)cc2)cc1 (centres unmarked) [bitolterol]
- duration of activity [3]: 4 to 6 h

Structure (SMILES): CC(Cc1ccc(O)cc1)NCC(O)c1cc(O)cc(O)c1 (centres unmarked) [fenoterol]
- duration of activity [3]: 4 to 6 h

Structure (SMILES): CC(C)(C)NCC(O)c1ccc(O)c(CO)c1 (centres unmarked) [salbutamol]
- duration of activity [3]: 4 to 6 h

Structure (SMILES): OCc1cc(C(O)CNCCCCCCOCCCCc2ccccc2)ccc1O (centres unmarked) [salmeterol]
- duration of activity compared with terbutaline ([1]; calculated from an equipotent level): prolonged
- dose-related inhibition of the histamine-elicited bronchospasm [2]: inhibition of the histamine-elicited bronchospasm
- reduction of ITP ([2]; injection of 5x10⁻¹⁰ mol/kg): about 50 per cent
- potency compared with the other two drugs (compound of Example 2, terbutaline) ([2]; when inhaled): about five times
- potency compared with the other two drugs (compound of Example 2, terbutaline) ([2]; when injected): at least ten times higher
- increase of the heart-rate (heart-rate; guinea pig, in vivo): 15 beats/min
- increase of the heart-rate (heart-rate; guinea pig, in vivo, iv): about 30 beats/min
